Tested on: MDA-MB-231 complex spheroid viability
Test: Anticancer human tumor MDA-MB-231/ATCC cell line growth inhibition;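 further: drug exposure lasted 7 days starting on day 3 of spheroid growth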
Conditions: for IC50: curve of first compound; for viability, T/C: stronger effect = lower value
Source text: Multicellular complex tumor spheroid response to LSD1 Inhibitor Iadademstat in combination with a variety of drugs and investigational agents in selected tumor cell lines
The current study was undertaken to assess response to LSD1 inhibitors in combination with standard-of-care drugs and investigational agents in solid tumor complex spheroid models as well as in the K-562 leukemia. Complex spheroids include a stromal component modeled by human endothelial cells (HUVEC) and fibroblasts modeled by human mesenchymal stem cells (MSCs). The concentration ranges selected for each drug and investigational agent were based upon clinically achievable concentrations if the clinical Cmax of the agent was known.
Compounds. The drugs and investigational agents used in this study are listed on Table 1. All of the agents used, including staurosporine (NSC755774) and gemcitabine (NSC613327), were obtained from the Developmental Therapeutics Program, NCI. FDA-approved anticancer drugs are available from the NCI at http://dtp.nci.nih.gov/branches/dscb/oncology_drugset_explanation.html. Drugs and investigational agents were >95% pure by proton nuclear magnetic resonance (NMR) and liquid chromatography/mass spectrometry (LC/MS). Stock solutions were prepared at 400x in DMSO, stored at -70 degrees C, and diluted in fresh medium prior to their use. The final concentration of DMSO in cell culture wells never exceeded 0.25% (v/v). The FDA-approved anticancer drug set is available from the Developmental Therapeutics Program at https://dtp.cancer.gov/organization/dscb/obtaining/available_plates.htm. All drugs and investigational agents were tested over a range starting from a high concentration at or near the clinical Cmax and decreasing in half-log increments. If the clinical Cmax for an agent had not been determined, the highest concentration tested was 10 microM.
Cell Lines. The patient-derived cancer cell (PDC) lines: 292921-168-R-J2-PDC, K24384-001-R-PDC, and 521955-158-R2-J5-PDC pancreatic carcinomas, 556581-035-R-J1 ovarian carcinoma, 324938-238-R-J1-PDC, 855422-203-R-J1-PDC and 883617-216-R-J1-PDC urothelial bladder carcinomas, 743489-274-T-PDC renal cell carcinoma, 138582-R-J1 Merkel cell tumor, K60290-347-R-J1 and K57222-313-R-J1-PDC glioblastomas, 653999-131-R-J2-PDC, LG0703-F948-PDC, and 349418-098-R-PDC non-small cell lung carcinomas, 885512-296-R-J2-PDC, 171881-019-R-J1-PDC breast carcinomas and 186277-243-T-J2-PDC and 233499-124-R-J2-PDC colon carcinomas were obtained from the NCI Patient-Derived Models Repository (PDMR, https://pdmr.cancer.gov). The established cell lines NCI/ADR-RES (RRID:CVCL_14520 and OVCAR-5 (RRID:CVCL_1628) ovarian carcinomas, 786-O (RRID:CVCL_1051) and A498 (RRID:CVCL_A498) renal cell carcinoma, NCI-H211 (ATCC, cat. CRL-5824; RRID:CVCL_1529), NCI-H196 (ATCC, cat. CRL-5823, RRID:CVCL_1509), SW 1271 (ATCC, cat. CRL-2177, RRID:CVCL_1716) and NCI-H1876 (ATCC, cat. CRL-5902, RRID:CVCL_1503) small cell lung carcinomas, MDA-MB-231 (RRID:CVCL_0062) and MDA-MB-468 (RRID:CVCL_0419)breast carcinomas (10-12). Pooled donor human umbilical vein endothelial cells (HUVEC, Lonza, cat. CC-2519) and human mesenchymal stem cells (hMSC, Lonza, cat. PT-2501) were purchased from Lonza (Walkersville, MD).
Cell Culture. All cells were maintained in an incubator at 37 degrees C and 5% CO2 with 95% humidity. The PDC lines were cultured according to standard operating procedures established by the NCI PDMR (https://pdmr.cancer.gov). Briefly all PDCs were thawed and cultured in Matrigel-coated flasks prepared with a working solution of 1X Ham's F-12 nutrient mix, without supplementation (Invitrogen, Waltham, MA, cat. 11765054), 100 U/mL penicillin-streptomycin (Invitrogen, cat. 15140122), and 2.5% Matrigel (Corning Inc., Corning, NY, cat. 354248) for the first three passages. […]

Q: Which results are given for `COc1cc(C2c3cc4c(cc3C(OC3OC5COC(C)OC5C(O)C3O)C3COC(=O)C23)OCO4)cc(OC)c1O` (stereo not given) + NC1CC1c1ccc(-c2cccc(O)c2)cc1?
A: IC50 (second compound 0.1 µM): 22.6 nM; IC50 (second compound 0.316 µM): 13.4 nM; IC50 (second compound 1 µM): 15.4 nM; IC50 (second compound 3.16 µM): < 9.49 nM; IC50 (second compound 10 µM): < 9.49 nM; viability, T/C (second compound 0.1 µM, first compound 0.00949 µM): 67.5%; viability, T/C (second compound 0.1 µM, first compound 0.03 µM): 43.7%; viability, T/C (second compound 0.1 µM, first compound 0.0949 µM): 28.4%; viability, T/C (second compound 0.1 µM, first compound 0.3 µM): 25.9%; viability, T/C (second compound 0.1 µM, first compound 0.949 µM): 15.5%; viability, T/C (second compound 0.1 µM, first compound 3 µM): 12%; viability, T/C (second compound 0.316 µM, first compound 0.00949 µM): 55%; viability, T/C (second compound 0.316 µM, first compound 0.03 µM): 38.7%; viability, T/C (second compound 0.316 µM, first compound 0.0949 µM): 27.1%; viability, T/C (second compound 0.316 µM, first compound 0.3 µM): 20.5%; viability, T/C (second compound 0.316 µM, first compound 0.949 µM): 14.2%; viability, T/C (second compound 0.316 µM, first compound 3 µM): 11.3%; viability, T/C (second compound 1 µM, first compound 0.00949 µM): 56.7%; viability, T/C (second compound 1 µM, first compound 0.03 µM): 41.7%; viability, T/C (second compound 1 µM, first compound 0.0949 µM): 24.9%; viability, T/C (second compound 1 µM, first compound 0.3 µM): 23%; viability, T/C (second compound 1 µM, first compound 0.949 µM): 14%; viability, T/C (second compound 1 µM, first compound 3 µM): 11.9%; viability, T/C (second compound 3.16 µM, first compound 0.00949 µM): 48.6%; viability, T/C (second compound 3.16 µM, first compound 0.03 µM): 32.3%; viability, T/C (second compound 3.16 µM, first compound 0.0949 µM): 23.5%; viability, T/C (second compound 3.16 µM, first compound 0.3 µM): 20.3%; viability, T/C (second compound 3.16 µM, first compound 0.949 µM): 14.7%; viability, T/C (second compound 3.16 µM, first compound 3 µM): 11.7%; viability, T/C (second compound 10 µM, first compound 0.00949 µM): 38.2%; viability, T/C (second compound 10 µM, first compound 0.03 µM): 25.5%; viability, T/C (second compound 10 µM, first compound 0.0949 µM): 24.9%; viability, T/C (second compound 10 µM, first compound 0.3 µM): 20.1%; viability, T/C (second compound 10 µM, first compound 0.949 µM): 11.6%; viability, T/C (second compound 10 µM, first compound 3 µM): 10%

From PubChem BioAssay AID1918953 (Molecular Pharmacology Branch, DTP, NCI, 2023)
